This is an account of results in patent US8680275B2, “Fused heterocyclic compounds as orexin receptor modulators” (Janssen Pharmaceutica NV, priority 2009, dated 2014).

Read-outs that look alike come from different tables or passages of the source.

The target in one assay is human orexin 1 receptor (Homo sapiens (Human), UniProt O43613). The assay is described as follows: Human orexin 1 receptor radioligand binding ([3H]-SB674042 competition). To be noted: read-out: OR-1 Ki. In a few lines: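 CHO cells stably expressing human OX1R incubated 60 min at room temperature with [3H]-SB674042 and compounds (7 concentrations, 0.1 nM–10 μM; DMSO ≤0.1%) in PBS. Nonspecific binding defined with 10 μM of a reference urea antagonist; bound radioactivity measured by filtration and scintillation counting.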
Sequence of human orexin 1 receptor (O43613 whole entry): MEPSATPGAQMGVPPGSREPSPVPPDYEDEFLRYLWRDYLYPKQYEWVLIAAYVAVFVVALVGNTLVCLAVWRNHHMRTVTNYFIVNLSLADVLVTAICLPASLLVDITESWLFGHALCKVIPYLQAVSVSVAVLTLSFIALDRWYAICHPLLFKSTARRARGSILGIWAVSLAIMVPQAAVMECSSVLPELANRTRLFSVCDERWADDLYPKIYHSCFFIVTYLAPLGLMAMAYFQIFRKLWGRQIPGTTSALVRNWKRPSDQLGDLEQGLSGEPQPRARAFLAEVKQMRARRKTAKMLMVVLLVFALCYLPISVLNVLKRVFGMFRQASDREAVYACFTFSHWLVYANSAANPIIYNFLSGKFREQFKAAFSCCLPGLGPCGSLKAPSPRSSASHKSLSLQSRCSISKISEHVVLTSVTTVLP

The target in the next assay is human orexin-2 receptor (Homo sapiens (Human), UniProt O43614). The assay is described as follows: Human orexin 2 receptor radioligand binding ([3H]-EMPA competition). The settings on record: read-out: OR-2 Ki. The procedure, abridged: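 Competition binding on HEK293 cells stably expressing human orexin-2 receptor, using 5 nM final [3H]-EMPA in PBS, compounds 0.1 nM to 10 μM (DMSO ≤0.1%). 60 min at room temperature, then filtration and scintillation counting; nonspecific binding defined with 10 μM of a reference antagonist.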
Sequence of human orexin-2 receptor (O43614 whole entry): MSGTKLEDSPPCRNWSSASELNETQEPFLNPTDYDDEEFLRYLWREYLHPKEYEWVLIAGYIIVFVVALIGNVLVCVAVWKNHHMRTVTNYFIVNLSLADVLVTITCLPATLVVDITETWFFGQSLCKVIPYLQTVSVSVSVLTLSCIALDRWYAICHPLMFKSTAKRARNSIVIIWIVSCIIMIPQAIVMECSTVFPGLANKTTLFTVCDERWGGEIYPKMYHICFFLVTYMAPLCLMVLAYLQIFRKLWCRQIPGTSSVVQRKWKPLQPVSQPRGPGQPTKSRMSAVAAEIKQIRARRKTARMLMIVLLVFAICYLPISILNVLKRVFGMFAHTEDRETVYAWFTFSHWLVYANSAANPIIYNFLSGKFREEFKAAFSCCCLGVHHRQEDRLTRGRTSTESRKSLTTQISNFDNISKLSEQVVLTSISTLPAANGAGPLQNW

[1] abbreviates: CHO cells stably expressing human orexin 1 receptor, [3H]-SB674042 4 nM final.
Setting [2] is: HEK293 cells stably expressing human orexin-2 receptor, [3H]-EMPA 5 nM final.

As to `Cc1cncc(N2C[C@@H]3CCN(C(=O)c4cc(F)ccc4-n4nccn4)C[C@@H]32)n1` [Example 111, (1R,6S)-3-{[5-Fluoro-2-(2H-1,2,3-triazol-2-yl)phenyl]carbonyl}-8-(6-methylpyrazin-2-yl)-3,8-diazabicyclo[4.2.0]octane], the inhibitory constant (Ki) (in general, a measure of affinity in units of concentration, obtained from inhibition or displacement) is 5 µM at human orexin 1 receptor (setting [1]) and 0.176 µM on human orexin-2 receptor (setting [2]).

As to `Cc1cncc(N2C[C@@H]3CCN(C(=O)c4ccccc4-n4nccn4)C[C@@H]32)n1` [Example 112, (1R,6S)-8-(6-Methylpyrazin-2-yl)-3-{[2-(2H-1,2,3-triazol-2-yl)phenyl]carbonyl}-3,8-diazabicyclo[4.2.0]octane], the inhibition constant Ki at human orexin 1 receptor (setting [1]) stood at 1.96 µM; at human orexin-2 receptor (setting [2]), 0.115 µM.

For the molecule `Cc1cncc(N2C[C@@H]3CCN(C(=O)c4c(F)cccc4-n4nccn4)C[C@@H]32)n1` [Example 113, (1R,6S)-3-{[2-Fluoro-6-(2H-1,2,3-triazol-2-yl)phenyl]carbonyl}-8-(6-methylpyrazin-2-yl)-3,8-diazabicyclo[4.2.0]octane], the Ki came to 9 µM at human orexin 1 receptor (setting [1]) and 0.161 µM on human orexin-2 receptor (setting [2]).

As to `Cc1cncc(N2C[C@@H]3CCN(C(=O)c4ccc(F)cc4-n4nccn4)C[C@@H]32)n1` [Example 114, (1R,6S)-3-{[4-Fluoro-2-(2H-1,2,3-triazol-2-yl)phenyl]carbonyl}-8-(6-methylpyrazin-2-yl)-3,8-diazabicyclo[4.2.0]octane], the values for the inhibition constant (Ki) at human orexin 1 receptor and on human orexin-2 receptor (setting [2]) were 10 µM and 0.494 µM, respectively.

With `O=C(c1ccc(F)cc1-n1nccn1)N1CC[C@H]2CN(c3cnc4ccccc4n3)[C@H]2C1` [Example 115, 2-[(1R,6S)-3-{[4-Fluoro-2-(2H-1,2,3-triazol-2-yl)phenyl]carbonyl}-3,8-diazabicyclo[4.2.0]oct-8-yl]quinoxaline], the inhibitory constant (Ki) on human orexin 1 receptor (setting [1]) was 0.177 µM; on human orexin-2 receptor (setting [2]), 0.06 µM.

Consider `O=C(c1cccc(F)c1-n1nccn1)N1CC[C@H]2CN(c3cnc4ccccc4n3)[C@H]2C1` [Example 116, 2-[(1R,6S)-3-{[3-Fluoro-2-(2H-1,2,3-triazol-2-yl)phenyl]carbonyl}-3,8-diazabicyclo[4.2.0]oct-8-yl]quinoxaline], for which the Ki on human orexin 1 receptor (setting [1]) turned out to be 0.023 µM; on human orexin-2 receptor (setting [2]) it was 0.028 µM.

With `O=C(c1c(F)cccc1-n1nccn1)N1CC[C@H]2CN(c3cnc4ccccc4n3)[C@H]2C1` [Example 117, 2-[(1R,6S)-3-{[2-Fluoro-6-(2H-1,2,3-triazol-2-yl)phenyl]carbonyl}-3,8-diazabicyclo[4.2.0]oct-8-yl]quinoxaline], the figures for the inhibitory constant (Ki) on human orexin 1 receptor (setting [1]) and at human orexin-2 receptor (setting [2]) were 0.023 µM and 0.018 µM, respectively.

In the case of `O=C(c1cc(F)ccc1-n1nccn1)N1CC[C@H]2CN(c3cnc4ccccc4n3)[C@H]2C1` [Example 118, 2-[(1R,6S)-3-{[5-Fluoro-2-(2H-1,2,3-triazol-2-yl)phenyl]carbonyl}-3,8-diazabicyclo[4.2.0]oct-8-yl]quinoxaline], the Ki was determined as 0.033 µM at human orexin 1 receptor (setting [1]) and 0.04 µM at human orexin-2 receptor (setting [2]).

For `O=C(c1ccccc1-n1nccn1)N1CC[C@H]2CN(c3nc4cc(Cl)ccc4o3)[C@H]2C1` [Example 119, 5-Chloro-2-[(1R,6S)-3-{[2-(2H-1,2,3-triazol-2-yl)phenyl]carbonyl}-3,8-diazabicyclo[4.2.0]oct-8-yl]-1,3-benzoxazole], the Ki on human orexin 1 receptor (setting [1]) came out at 0.032 µM; at human orexin-2 receptor (setting [2]) it was 0.017 µM.

On to `O=C(c1c(F)cccc1-n1nccn1)N1CC[C@H]2CN(c3nc4cc(Cl)ccc4o3)[C@H]2C1` [Example 120, 5-Chloro-2-[(1R,6S)-3-{[2-fluoro-6-(2H-1,2,3-triazol-2-yl)phenyl]carbonyl}-3,8-diazabicyclo[4.2.0]oct-8-yl]-1,3-benzoxazole], for which the inhibitory constant (Ki) at human orexin 1 receptor (setting [1]) came out at 0.043 µM; on human orexin-2 receptor (setting [2]) it was 0.026 µM.

For the molecule `O=C(c1cc(F)ccc1-n1nccn1)N1CC[C@H]2CN(c3nc4cc(Cl)ccc4o3)[C@H]2C1` [Example 121, 5-Chloro-2-[(1R,6S)-3-{[5-fluoro-2-(2H-1,2,3-triazol-2-yl)phenyl]carbonyl}-3,8-diazabicyclo[4.2.0]oct-8-yl]-1,3-benzoxazole], the figures for the inhibition constant (Ki) on human orexin 1 receptor (setting [1]) and on human orexin-2 receptor were 0.091 µM and 0.075 µM, respectively.

Take `O=C(c1ccc(F)cc1-n1nccn1)N1CC[C@H]2CN(c3nc4cc(Cl)ccc4o3)[C@H]2C1` [Example 122, 5-Chloro-2-[(1R,6S)-3-{[4-fluoro-2-(2H-1,2,3-triazol-2-yl)phenyl]carbonyl}-3,8-diazabicyclo[4.2.0]oct-8-yl]-1,3-benzoxazole]: the results for the inhibition constant Ki on human orexin 1 receptor (setting [1]) and on human orexin-2 receptor (setting [2]) were 0.128 µM and 0.059 µM, respectively.

With `O=C(c1cccc(F)c1-n1nccn1)N1CC[C@H]2CN(c3nc4cc(Cl)ccc4o3)[C@H]2C1` [Example 123, 5-Chloro-2-[(1R,6S)-3-{[3-fluoro-2-(2H-1,2,3-triazol-2-yl)phenyl]carbonyl}-3,8-diazabicyclo[4.2.0]oct-8-yl]-1,3-benzoxazole], the inhibition constant Ki on human orexin 1 receptor (setting [1]) turned out to be 0.095 µM; on human orexin-2 receptor (setting [2]) it was 0.045 µM.

As to `Cc1cccc(N2C[C@@H]3CCN(C(=O)c4c(F)cccc4-n4nccn4)C[C@@H]32)n1` [Example 124, (1R,6S)-3-{[2-Fluoro-6-(2H-1,2,3-triazol-2-yl)phenyl]carbonyl}-8-(6-methylpyridin-2-yl)-3,8-diazabicyclo[4.2.0]octane], the Ki at human orexin 1 receptor (setting [1]) turned out to be 4.15 µM; at human orexin-2 receptor (setting [2]) it was 0.092 µM.

Turning to `Cc1cccc(N2C[C@@H]3CCN(C(=O)c4ccccc4-n4nccn4)C[C@@H]32)n1` [Example 125, (1R,6S)-8-(6-Methylpyridin-2-yl)-3-{[2-(2H-1,2,3-triazol-2-yl)phenyl]carbonyl}-3,8-diazabicyclo[4.2.0]octane], the Ki at human orexin 1 receptor (setting [1]) amounted to 3.3 µM; on human orexin-2 receptor (setting [2]), 0.073 µM.

As for `Cc1cccc(N2C[C@@H]3CCN(C(=O)c4cc(F)ccc4-n4nccn4)C[C@@H]32)n1` [Example 126, (1R,6S)-3-{[5-Fluoro-2-(2H-1,2,3-triazol-2-yl)phenyl]carbonyl}-8-(6-methylpyridin-2-yl)-3,8-diazabicyclo[4.2.0]octane], the Ki is 5.47 µM at human orexin 1 receptor (setting [1]) and 0.149 µM at human orexin-2 receptor (setting [2]).

With `Cc1ccnc(N2C[C@@H]3CCN(C(=O)c4cc(F)ccc4-n4nccn4)C[C@@H]32)c1` [Example 127, (1R,6S)-3-{[5-Fluoro-2-(2H-1,2,3-triazol-2-yl)phenyl]carbonyl}-8-(4-methylpyridin-2-yl)-3,8-diazabicyclo[4.2.0]octane], the Ki stood at 10 µM on human orexin 1 receptor (setting [1]) and 0.21 µM at human orexin-2 receptor (setting [2]).

With `Cc1cc(C)nc(N2C[C@@H]3CCN(C(=O)c4cc(F)ccc4-n4nccn4)C[C@@H]32)c1` [Example 128, (1R,6S)-8-(4,6-Dimethylpyridin-2-yl)-3-{[5-fluoro-2-(2H-1,2,3-triazol-2-yl)phenyl]carbonyl}-3,8-diazabicyclo[4.2.0]octane], the inhibition constant (Ki) at human orexin 1 receptor (setting [1]) stood at 1.01 µM; on human orexin-2 receptor (setting [2]), 0.026 µM.

Take `O=C(c1cc(F)ccc1-n1nccn1)N1CC[C@H]2CN(c3cccc(C(F)(F)F)n3)[C@H]2C1` [Example 129, (1R,6S)-3-{[5-Fluoro-2-(2H-1,2,3-triazol-2-yl)phenyl]carbonyl}-8-[6-(trifluoromethyl)pyridin-2-yl]-3,8-diazabicyclo[4.2.0]octane]: the values for the inhibitory constant (Ki) on human orexin 1 receptor (setting [1]) and at human orexin-2 receptor (setting [2]) were 0.265 µM and 0.036 µM, respectively.

With `O=C(c1cc(F)ccc1-n1nccn1)N1CC[C@H]2CN(c3cc(C(F)(F)F)ccn3)[C@H]2C1` [Example 130, (1R,6S)-3-{[5-Fluoro-2-(2H-1,2,3-triazol-2-yl)phenyl]carbonyl}-8-[4-(trifluoromethyl)pyridin-2-yl]-3,8-diazabicyclo[4.2.0]octane], the inhibitory constant (Ki) was 1.72 µM on human orexin 1 receptor (setting [1]) and 0.031 µM at human orexin-2 receptor (setting [2]).

As for `Cc1ccc(N2C[C@@H]3CCN(C(=O)c4cc(F)ccc4-n4nccn4)C[C@@H]32)nc1` [Example 131, (1R,6S)-3-{[5-Fluoro-2-(2H-1,2,3-triazol-2-yl)phenyl]carbonyl}-8-(5-methylpyridin-2-yl)-3,8-diazabicyclo[4.2.0]octane], the inhibition constant Ki at human orexin 1 receptor (setting [1]) is 1.6 µM; on human orexin-2 receptor (setting [2]) it was 0.25 µM.

On to `Cc1cc(C)nc(N2C[C@@H]3CCN(C(=O)c4cccc(C)c4-n4cccn4)C[C@@H]32)n1` [Example 133, (1R,6S)-8-(4,6-Dimethylpyrimidin-2-yl)-3-{[3-methyl-2-(1H-pyrazol-1-yl)phenyl]carbonyl}-3,8-diazabicyclo[4.2.0]octane], for which the Ki was determined as 0.55 µM on human orexin 1 receptor (setting [1]) and 0.036 µM at human orexin-2 receptor (setting [2]).

As to `COc1ccc(-n2nccn2)c(C(=O)N2CC[C@H]3CN(c4nc(C)cc(C)n4)[C@H]3C2)c1` [Example 134, (1R,6S)-8-(4,6-Dimethylpyrimidin-2-yl)-3-{[5-methoxy-2-(2H-1,2,3-triazol-2-yl)phenyl]carbonyl}-3,8-diazabicyclo[4.2.0]octane], the inhibitory constant (Ki) turned out to be 0.277 µM at human orexin 1 receptor (setting [1]) and 0.016 µM on human orexin-2 receptor (setting [2]).

On to `Cc1cc(C)nc(N2C[C@@H]3CCN(C(=O)c4cccc(C)c4-n4nccn4)C[C@@H]32)n1` [Example 135, (1R,6S)-8-(4,6-Dimethylpyrimidin-2-yl)-3-{[3-methyl-2-(2H-1,2,3-triazol-2-yl)phenyl]carbonyl}-3,8-diazabicyclo[4.2.0]octane], for which the inhibition constant Ki came out at 0.135 µM at human orexin 1 receptor (setting [1]) and 0.015 µM on human orexin-2 receptor (setting [2]).

On to `Cc1cc(C)nc(N2C[C@@H]3CCN(C(=O)c4nccnc4-c4ccccc4)C[C@@H]32)n1` [Example 137, (1R,6S)-8-(4,6-Dimethylpyrimidin-2-yl)-3-[(3-phenylpyrazin-2-yl)carbonyl]-3,8-diazabicyclo[4.2.0]octane], for which the Ki on human orexin 1 receptor (setting [1]) is 10 µM; on human orexin-2 receptor (setting [2]) it was 0.275 µM.
